EC50, IC50 and AC50 data for 25 molecules are collected here from ChEMBL document CHEMBL1201862, “PubChem BioAssay data set” (2004).

Activity calls are given as the source filed them. Rule as the data show it, for most assays here: actives have a measured EC50 and inactives only a lower limit. Where only a bound is given, the exact number is not on record here.

Experiment [1] addresses T1, RNA-binding protein pos-1 (Caenorhabditis elegans, UniProt G5EF15).
T1 sequence (G5EF15 whole entry): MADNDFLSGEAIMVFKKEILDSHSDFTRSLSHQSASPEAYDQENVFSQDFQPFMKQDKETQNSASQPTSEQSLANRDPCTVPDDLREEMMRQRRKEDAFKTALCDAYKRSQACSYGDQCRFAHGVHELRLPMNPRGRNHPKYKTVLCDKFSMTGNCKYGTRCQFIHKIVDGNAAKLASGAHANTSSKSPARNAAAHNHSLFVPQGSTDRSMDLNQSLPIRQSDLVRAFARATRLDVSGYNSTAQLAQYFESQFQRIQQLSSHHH
Kind of experiment: inhibitors of POS-1/mex-3 RNA binding, dose response, biochemical, fluorescence polarization (AID 1964).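 Also: purified POS-1 fused to maltose binding protein made in E. coli; potency of compounds blocking POS-1 binding to fluorescent RNA.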

For experiment [2], the target named is Luciferin 4-monooxygenase (Photinus pyralis, UniProt P08659). Kind of experiment: firefly luciferase enzyme inhibitors, dose response, biochemical, luminescence (AID 1891).
A short description of experiment [3]: Luminescence Cell-Based Dose Confirmation HTS to Identify Inhibitors of Platelet Dense Granule Release. [Related pubchem assays: 1663 (Primary HTS), 1678 (Summary of Project)]. The format is functional.
For another experiment, the system named is H9c2. Kind of experiment: cells. The following applies: Rattus norvegicus, H9c2, Myocardium. The format is functional, cell-based.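 Also: confirmatory concentration-response retest of ultra-high-throughput screening hits for modulation of myocardial damage; cell death induced by hydrogen peroxide oxidative stress; compound pretreatment for 60 min then peroxide exposure for 2 h; potency is for protecting the cells against peroxide damage rather than for killing them.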
Experiment [4] in a line: Luminescence Cell-Based Dose Confirmation HTS to Identify Activators of 5'UTR Stem-Loop Driven Alpha-Synuclein mRNA Translation in H4 Neuroglioblastoma Cells. [Related pubchem assays: 1829 (Project Summary), 1814 (Primary HTS)]. The experiment is classed as functional.
A short description of experiment [5]: Luminescence Cell-Based Dose Response HTS to Identify Activators of Luciferase Translation or Activity in H4 […] Cells. [Related pubchem assays: 1829 (Project Summary), 1814 (Primary HTS)]. The format is functional.
For another experiment, the system named is H4. The experiment is described as follows: Luminescence Cell-Based Dose Response HTS to Identify Activators of 5'UTR Stem-Loop Driven Prion Protein mRNA Translation in H4 Neuroglioblastoma Cells. [Related pubchem assays: 1829 (Project Summary), 1814 (Primary HTS)]. The format is functional. As to conditions: Homo sapiens.
Another experiment deals with Cytochrome P450 2C9 (Homo sapiens, UniProt P11712).
Experiment [6] can be described thus: inhibitors of firefly luciferase expression or activity, dose response, H4 neuroglioma cells, luminescence (AID 1990). The format is functional, cell-based.
A short description of experiment [7]: Luminescence Cell-Based Dose Response HTS to Identify Inhibitors of 5'UTR Stem-Loop Driven Prion Protein mRNA Translation in H4 Neuroglioblastoma Cells. [Related pubchem assays: 1827 (Project Summary), 1813 (Primary HTS)]. The experiment is classed as functional.
Experiment [8] in a line: inhibitors of SNCA 5'UTR-driven reporter translation, confirmation, H4 neuroglioma cells, luminescence (AID 1988). The experiment is classed as functional, cell-based.
Experiment [9] addresses T2, Replicative DNA helicase DnaB (Mycobacterium tuberculosis, UniProt P9WMR3).
T2 sequence (P9WMR3 whole entry): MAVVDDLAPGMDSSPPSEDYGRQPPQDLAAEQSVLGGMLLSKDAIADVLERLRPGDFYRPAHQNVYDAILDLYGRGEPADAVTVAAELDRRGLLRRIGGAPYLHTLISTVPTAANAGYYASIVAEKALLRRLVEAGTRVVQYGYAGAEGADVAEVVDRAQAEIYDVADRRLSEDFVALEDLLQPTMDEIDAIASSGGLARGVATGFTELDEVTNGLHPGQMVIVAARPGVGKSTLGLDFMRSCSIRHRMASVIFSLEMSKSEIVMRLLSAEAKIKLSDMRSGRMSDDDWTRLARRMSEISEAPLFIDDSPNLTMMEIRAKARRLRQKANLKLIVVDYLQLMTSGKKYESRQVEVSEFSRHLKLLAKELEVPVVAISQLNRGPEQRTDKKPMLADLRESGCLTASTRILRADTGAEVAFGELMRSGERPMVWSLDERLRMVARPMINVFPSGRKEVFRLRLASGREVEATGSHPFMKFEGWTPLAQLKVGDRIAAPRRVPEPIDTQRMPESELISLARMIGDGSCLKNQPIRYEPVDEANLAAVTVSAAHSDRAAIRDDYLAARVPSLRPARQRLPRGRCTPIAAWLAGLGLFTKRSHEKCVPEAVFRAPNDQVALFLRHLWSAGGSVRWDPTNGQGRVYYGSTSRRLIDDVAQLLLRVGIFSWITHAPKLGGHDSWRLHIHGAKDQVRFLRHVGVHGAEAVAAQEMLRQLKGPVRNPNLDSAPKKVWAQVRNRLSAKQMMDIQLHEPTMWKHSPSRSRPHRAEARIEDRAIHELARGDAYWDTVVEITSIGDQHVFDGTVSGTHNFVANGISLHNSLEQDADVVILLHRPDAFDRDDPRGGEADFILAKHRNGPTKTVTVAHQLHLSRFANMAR
Kind of experiment: DnaB intein splicing inhibitors, dose response, biochemical, cell-free fluorescence (AID 449749). The experiment is classed as functional.

The target in another experiment is T3, Protein RecA (Mycobacterium tuberculosis, UniProt P9WHJ3).
T3 sequence (P9WHJ3 whole entry): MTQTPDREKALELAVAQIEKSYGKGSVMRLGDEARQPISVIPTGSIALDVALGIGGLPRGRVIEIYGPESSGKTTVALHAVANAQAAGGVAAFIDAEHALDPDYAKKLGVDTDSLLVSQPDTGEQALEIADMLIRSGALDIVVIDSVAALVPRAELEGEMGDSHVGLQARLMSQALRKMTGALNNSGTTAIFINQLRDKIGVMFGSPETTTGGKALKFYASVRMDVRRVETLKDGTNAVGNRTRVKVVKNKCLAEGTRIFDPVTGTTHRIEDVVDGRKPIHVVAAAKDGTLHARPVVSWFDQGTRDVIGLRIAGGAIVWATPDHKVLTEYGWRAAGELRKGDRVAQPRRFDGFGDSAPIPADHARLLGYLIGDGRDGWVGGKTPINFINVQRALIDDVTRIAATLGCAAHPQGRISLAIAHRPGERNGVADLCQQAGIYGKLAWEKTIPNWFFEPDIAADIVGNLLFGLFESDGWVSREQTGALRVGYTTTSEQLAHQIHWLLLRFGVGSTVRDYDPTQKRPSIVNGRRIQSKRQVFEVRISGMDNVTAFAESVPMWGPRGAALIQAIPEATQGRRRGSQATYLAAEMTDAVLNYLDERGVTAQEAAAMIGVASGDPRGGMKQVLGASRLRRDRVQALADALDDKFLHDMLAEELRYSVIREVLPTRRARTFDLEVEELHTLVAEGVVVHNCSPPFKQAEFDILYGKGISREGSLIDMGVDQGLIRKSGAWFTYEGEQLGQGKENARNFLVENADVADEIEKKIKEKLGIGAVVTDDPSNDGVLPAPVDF
Kind of experiment: Fluorescence Cell-Free Homogeneous Dose Retest to Identify Inhibitors of RecA-Intein Splicing Activity. [Related pubchem assays (depositor defined):AID2097, AID2223, AID489010, AID492950]. The experiment is classed as functional.

Experiment [10] has as its target T4, Zinc finger protein mex-5 (Caenorhabditis elegans, UniProt Q9XUB2).
T4 sequence (Q9XUB2 whole entry): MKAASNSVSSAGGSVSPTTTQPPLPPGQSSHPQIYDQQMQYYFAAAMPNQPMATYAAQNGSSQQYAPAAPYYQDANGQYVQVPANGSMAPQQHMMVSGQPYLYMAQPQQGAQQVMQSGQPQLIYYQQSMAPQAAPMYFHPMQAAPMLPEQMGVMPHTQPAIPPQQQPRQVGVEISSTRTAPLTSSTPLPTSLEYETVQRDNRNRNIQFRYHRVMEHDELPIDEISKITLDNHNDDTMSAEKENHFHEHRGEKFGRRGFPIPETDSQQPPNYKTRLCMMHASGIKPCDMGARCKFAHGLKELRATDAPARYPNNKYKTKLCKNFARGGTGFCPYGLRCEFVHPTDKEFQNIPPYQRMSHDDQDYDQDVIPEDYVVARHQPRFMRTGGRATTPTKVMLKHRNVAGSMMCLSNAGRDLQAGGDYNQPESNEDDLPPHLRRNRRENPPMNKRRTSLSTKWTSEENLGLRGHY
Kind of experiment: MEX-5/TCR-2 RNA interaction inhibitors, dose response, biochemical, C. elegans, fluorescence polarization (AID 1960).

The nature of experiment [11]: Luminescence Cell-Based Dose Retest to Confirm Inhibitors of Cancer Stem Cells. [Related pubchem assays (depositor defined):AID2717, AID2721]. The experiment is classed as functional. As to conditions: Homo sapiens.

Luciferin 4-monooxygenase, sequence (P08659 whole entry): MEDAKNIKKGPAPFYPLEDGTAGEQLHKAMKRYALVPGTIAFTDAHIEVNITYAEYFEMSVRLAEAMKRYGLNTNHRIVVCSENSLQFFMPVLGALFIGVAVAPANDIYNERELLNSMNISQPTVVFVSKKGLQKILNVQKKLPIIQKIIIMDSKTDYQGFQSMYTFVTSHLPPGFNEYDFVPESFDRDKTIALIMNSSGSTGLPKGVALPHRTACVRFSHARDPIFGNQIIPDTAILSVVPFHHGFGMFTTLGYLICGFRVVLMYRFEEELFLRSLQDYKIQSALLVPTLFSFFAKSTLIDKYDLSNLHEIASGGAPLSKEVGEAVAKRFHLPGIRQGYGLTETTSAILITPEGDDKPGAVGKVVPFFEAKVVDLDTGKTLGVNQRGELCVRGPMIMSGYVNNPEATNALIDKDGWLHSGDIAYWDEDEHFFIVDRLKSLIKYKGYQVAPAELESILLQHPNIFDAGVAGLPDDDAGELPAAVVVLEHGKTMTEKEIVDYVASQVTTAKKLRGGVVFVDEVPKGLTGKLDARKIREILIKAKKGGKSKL
Cytochrome P450 2C9, sequence (P11712 whole entry): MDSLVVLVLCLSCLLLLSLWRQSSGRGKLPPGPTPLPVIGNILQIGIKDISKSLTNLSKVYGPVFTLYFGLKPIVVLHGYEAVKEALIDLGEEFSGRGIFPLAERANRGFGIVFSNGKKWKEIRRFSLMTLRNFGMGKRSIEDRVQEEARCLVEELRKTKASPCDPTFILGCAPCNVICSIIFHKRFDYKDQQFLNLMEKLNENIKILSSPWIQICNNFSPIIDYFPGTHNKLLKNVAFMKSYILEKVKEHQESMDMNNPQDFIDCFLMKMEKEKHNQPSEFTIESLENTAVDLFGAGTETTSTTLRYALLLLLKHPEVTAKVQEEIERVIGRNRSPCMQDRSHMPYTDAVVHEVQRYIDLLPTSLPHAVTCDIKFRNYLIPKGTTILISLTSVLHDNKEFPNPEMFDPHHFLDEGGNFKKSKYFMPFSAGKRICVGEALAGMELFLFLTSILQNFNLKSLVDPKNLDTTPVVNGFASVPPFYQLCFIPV

With `Cc1n[nH]c(S/C(C(=O)O)=C2/C(=O)Nc3ccccc32)n1`, the EC50 in [1] was > 300 µM (not active); in experiment [2] it was 15.9 µM (active); in [3] it was > 112 µM (not active).
Regarding `O=C(NCCc1c[nH]c2ccccc12)C(=O)NCC(c1ccco1)N1CCN(c2ccccc2F)CC1` (stereo not drawn), the IC50 with H9c2 was 12.2 µM (active).
`Cc1c(OCc2ccccc2)c(=O)ccn1Cc1ccccc1`: the EC50 in experiment [4] is 13.4 µM (active); in [5], 9.62 µM (active); with H4, 8.26 µM (active).
On to `Cc1ccc(NC(=O)CC2C(=O)NC3CCCCC3N2C(=O)c2ccc(F)cc2)cc1C` (stereo not drawn), for which the EC50 in experiment [2] and in experiment [3] was > 112 µM (not active) throughout.
`C[C@H](NC(=O)c1[nH]cnc1C(=O)NCC(=O)OCc1ccccc1)c1ccccc1`: the IC50 in the experiment with H9c2 is > 79 µM (inactive).
On the same count and under the same terms, for `CCOCc1c(C(=O)NC2=C(C(=O)OCC)C(CC)=Nc3ccccc3N2)oc2ccccc12` the value was > 79 µM (inactive); for `c1ccc2c(c1)nc(Nc1ccc3c(c1)OCO3)c1nnnn12`, 5.99 µM (active).
With `Cc1ccc(-c2csc(NC(CO)c3nc4ccccc4n3CCOCCO)n2)cc1` (stereo not drawn), the figures for the EC50 (in experiment [4]; in [5]; with H4) were > 120 µM (not active), > 120 µM (not active) and 17.3 µM (active), respectively.
Turning to `CCCCOC(=O)CCc1c(C)nc(O)c(C#N)c1C`, the EC50 is > 112 µM (not active) in [2] and 6.36 µM (active) in experiment [3]. Also, the AC50 on Cytochrome P450 2C9 was 0.282 µM (inconclusive).
With `CCCCn1c(SCC(=O)N2c3ccccc3CCc3ccccc32)nc2c1c(=O)n(C)c(=O)n2C`, the EC50 is > 120 µM (not active) in experiment [6], 14.2 µM (active) in [7] and 15 µM (active) in [8].
Take `Cc1nnc2ccc(-c3ccc(NC(=O)c4ccco4)cc3)nn12`: the figures for the EC50 (in experiment [4]; in experiment [5]; in the experiment on H4) were 18.5 µM (active), 14.4 µM (active) and > 120 µM (not active), respectively.
Turning to `Cc1ccc(S(=O)(=O)N(C(=O)c2ccncc2)c2ccc(OC(=O)c3ccncc3)c3ccccc23)c(C)c1`, the concentration at half-maximal activity (AC50) in experiment [9] was 15.4 µM (active). The EC50 on Protein RecA was 10 µM (active).
On to `Sc1nnc(Cc2sc(-c3ccccc3)nc2-c2ccccc2)o1`, for which the EC50 in experiment [6] is 18.9 µM (active); in experiment [7] it was > 120 µM (not active); in experiment [8], > 120 µM (not active).
On to `CN(C)c1ccc(-n2cc3c(=O)n(C)c(=O)n(C)c3c2)cc1`, for which the figures for the EC50 (in [4]; in experiment [5]; in the experiment with H4) were 45 µM (active), 21 µM (active) and 42.3 µM (active), respectively.
As to `COc1ccc(NC(=O)c2cccs2)cc1`, the EC50 in experiment [2] was 17.4 µM (active); in experiment [3], 18.6 µM (active).
For the molecule `CCOC(=O)CSc1nnc(CSc2nc(O)c3c4c(sc3n2)CCC4)n1C`, the IC50 with H9c2 was > 79 µM (inactive).
Regarding `N#CCCN(C(=O)COC(=O)CCc1c[nH]c2ccccc12)c1ccc(F)cc1`, the EC50 in [2] was > 112 µM (not active); in [3], 45.7 µM (active).
Take `O=C(CSc1nc(O)c2ccccc2n1)N1CCN(S(=O)(=O)c2ccccc2)CC1`: the IC50 with H9c2 is > 79 µM (inactive).
For the molecule `Cc1cc(Nc2cccc([N+](=O)[O-])c2)c2cccc(C)c2n1`, the EC50 in experiment [2] and in experiment [3] was > 112 µM (not active) in each case.
With `O=C(Cc1nnc(O)c2ccccc12)OCC(=O)c1ccccc1`, in the experiment on H9c2, the IC50 was 20.5 µM (active).
As to `Cc1ccc(/N=C/c2cc(Br)cc(Cl)c2O)cc1`, the EC50 in experiment [1] and in experiment [10] was > 300 µM (not active) each time. Further, in the experiment with H9c2, the IC50 was 10.4 µM (active).
Turning to `CC(=O)c1sc(N/N=C2\CC3CC2C(C)C3(C)C)nc1C` (stereo not drawn), the EC50 was 0.411 µM (active) in [4], 12.9 µM (active) in experiment [5] and 11 µM (active) with H4.
With `O=C(Cn1c2ccccc2c(=O)c2ccccc21)N/N=C/c1ccc(N2CCCC2)c([N+](=O)[O-])c1`, the EC50 in experiment [6] was 5.67 µM (active); in experiment [7], 7.94 µM (active); in experiment [8], 5.08 µM (active); in experiment [2] it was > 112 µM (not active); in [3] it was 27.4 µM (active). The AC50 in [11] was 0.483 µM (active).
In the case of `Cc1ccc(-n2cnc3c(sc4nccc(N(C)C)c43)c2=O)cc1`, the results for the EC50 (in experiment [4]; in experiment [5]; in the experiment with H4) were > 120 µM (not active), 75.7 µM (active) and 15.6 µM (active), respectively.
As to `COc1ccc(/C=N/N=C(/N)N[N+](=O)[O-])c(OC)c1`, the EC50 in experiment [2] is > 112 µM (not active); in experiment [3], 2.39 µM (active).
